Assay results reported in article PMC4490100 (Clinical cancer research : an official journal of the …, 2015).

Columns and labels:
[1] = system: mononuclear cells from normal bone marrow; type: cell-based, human
human leukemia cells = assay: Leukemia cell morphology after overnight incubation; type: cell-based; details: overnight incubation (Fig. 4C)
OCI-AML3 cells = assay: Cell death assay; type: cell-based, human; details: OCI-AML3, overnight at 37 °C, 40 μM or higher, AnnexinV-FITC/PI flow cytometry

## CGRRAGGSC-GG-D(KLAKLAK)2 (disulfide) [BMTP-11]
[1]
  effects on mononuclear cells from normal bone marrow: no detectable effects
Human leukemia cells
  effect on leukemia cell morphology: affected the morphology
OCI-AML3 cells
  cell death (fraction of cells): ~ 90%
